Source: patent US20100121049A1, “INDENOISOQUINOLINONE ANALOGS AND METHODS OF USE THEREOF” (INOTEK PHARMACEUTICALS CORPORATION, priority 2007, published 2010)
Where a name gives a salt, the structure may show the parent alone.

What follows are molecules tested against T1, PARP (Mus musculus, UniProt P11103) (assay: PARP activity in cultured macrophages, whole-cell based assay (3H-NAD+ incorporation after hydrogen peroxide)). Details: murine RAW macrophages; compound 1 hour prior to hydrogen peroxide (0.5 mM) for 25 minutes; PARP activity by 3H-NAD+.
T1 construct: PARP Activity in Cultured Macrophages, Using a Whole-Cell Based Assay; host or cells: murine RAW macrophages
T1 sequence (P11103 whole entry): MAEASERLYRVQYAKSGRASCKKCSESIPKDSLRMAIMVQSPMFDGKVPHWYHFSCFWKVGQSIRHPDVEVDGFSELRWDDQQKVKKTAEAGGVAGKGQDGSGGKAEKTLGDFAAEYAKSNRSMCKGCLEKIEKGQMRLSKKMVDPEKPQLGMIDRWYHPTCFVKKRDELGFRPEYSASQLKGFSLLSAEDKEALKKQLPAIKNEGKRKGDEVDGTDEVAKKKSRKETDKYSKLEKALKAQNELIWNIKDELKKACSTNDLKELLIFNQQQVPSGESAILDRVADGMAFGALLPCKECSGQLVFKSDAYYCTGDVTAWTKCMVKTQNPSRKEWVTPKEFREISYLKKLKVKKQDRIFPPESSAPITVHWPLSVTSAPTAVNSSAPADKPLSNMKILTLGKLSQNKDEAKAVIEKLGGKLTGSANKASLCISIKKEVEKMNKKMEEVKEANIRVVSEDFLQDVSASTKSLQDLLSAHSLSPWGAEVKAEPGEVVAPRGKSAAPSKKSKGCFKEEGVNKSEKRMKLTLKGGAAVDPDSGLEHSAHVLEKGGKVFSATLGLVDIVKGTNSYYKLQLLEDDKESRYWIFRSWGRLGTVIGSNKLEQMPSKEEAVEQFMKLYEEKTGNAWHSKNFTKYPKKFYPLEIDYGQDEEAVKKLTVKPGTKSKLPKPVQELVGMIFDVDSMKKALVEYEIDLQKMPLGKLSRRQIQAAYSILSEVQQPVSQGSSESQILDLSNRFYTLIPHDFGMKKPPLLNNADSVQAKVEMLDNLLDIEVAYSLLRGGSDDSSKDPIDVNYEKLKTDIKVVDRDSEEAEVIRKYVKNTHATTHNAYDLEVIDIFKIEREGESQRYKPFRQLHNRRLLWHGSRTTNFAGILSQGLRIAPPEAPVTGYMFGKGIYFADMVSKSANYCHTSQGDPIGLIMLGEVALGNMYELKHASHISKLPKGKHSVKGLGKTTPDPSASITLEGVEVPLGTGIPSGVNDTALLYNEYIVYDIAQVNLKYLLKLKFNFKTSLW
Procedure: Effect of Indenoisoquinolinone Analogs on PARP Activity in Cultured Macrophages, Using a Whole-Cell Based Assay
The murine RAW macrophages (ATCC, American Type Culture Collection, Manassas, Va.) were grown in RPMI […] (Invitrogen Life Technologies; Carlsbad, Calif.) medium supplemented with 10% heat-inactivated FBS, 2 mM L-glutamine, and 100 U/ml of penicillin and streptomycin. Cells, between passages 5 and 15, were seeded at a density of 250,000 cells/well in 12 well plates and allowed to grow 48 hours before use. Growth medium was changed on the day of use. Cells were treated with an Indenoisoquinolinone Analog diluted in a growth medium supplemented with 10% fetal bovine serum (FBS) for 1 hour prior to the addition of hydrogen peroxide (0.5 mM) for a further 25 minutes. For the measurement of PARP activity, media was removed and replaced with 0.5 ml of the assay buffer (56 mM HEPES-pH 7.5, 28 mM KCl, 28 mM NaCl, 2 mM MgCl2, 0.01% digitonin, and 0.5 μCi/m1 of ^3H-NAD^+) for 20 minutes. After aspirating the assay buffer, cells were lysed and transferred to eppendorf tubes containing 250 μl of 50% ice-cold trichloroacetic acid (TCA), which were then placed at 4° C. for 4 hours. Samples were centrifuged at 10,000 g for 10 minutes and supernatant removed. The pellets were washed twice with 500 μl of ice-cold 5% w/v TCA. The pellets were then solubilized in 250 μl of NaOH (0.1 M) containing 2% SDS overnight at 37° C. and the PARP activity was then determined by measuring the radioactivity incorporated using a Wallac scintillation counter. The solubilized protein (250 μl) was mixed with 5 ml of scintillation fluid (ScintiSafe Plus, Fisher Scientific) before being counted for 3 minutes. EC50 values were determined from a dose-response curve.

| SMILES | EC50 [nM] |
| --- | --- |
| O=c1[nH]c2c(c3ccccc13)Cc1cc(CN3CCN(CC4CC4)CC3)ccc1-2 [Dihydrochloride salt of IIIb-3, 9-[1-(4-Cyclopropylmethylpiperazino)methyl]-5,6-dihydro-5-oxo-11-H-indeno[1,2-c]isoquinoline dihydrochloride] | 10 |
| C=CCN1CCN(Cc2ccc3c(c2)Cc2c-3[nH]c(=O)c3ccccc23)CC1 [IIb-1, 9-[1-(4-Allylpiperazino)methyl]-5,6-dihydro-5-oxo-11-H-indeno[1,2-c]isoquinoline] | 45 |
| O=c1[nH]c2c(c3ccccc13)Cc1cc(CN3CCN(c4ncccn4)CC3)ccc1-2 [IIIb-8, 9-{1-[4-(2-Pyrimidyl)piperazino]methyl}-5,6-dihydro-5-oxo-11-H-indeno[1,2-c]isoquinoline] | 75 |
| C[C@@H]1CN(Cc2ccc3c(c2)Cc2c-3[nH]c(=O)c3ccccc23)C[C@H](C)N1 [IIIb-24, 9-[1-(3,5-Dimethylpiperazino)methyl]-5,6-dihydro-5-oxo-11-H-indeno[1,2-c]isoquinoline] | > 60 |
| CC(C)N1CCN(Cc2ccc3c(c2)Cc2c-3[nH]c(=O)c3ccccc23)CC1 [IIIb-1, 9-[1-(4-iso-Propylpiperazino)methyl]-5,6-dihydro-5-oxo-11-H-indeno[1,2-c]isoquinoline] | 20 |
| O=c1[nH]c2c(c3cccc(F)c13)Cc1c(CNC3CCCC3)cccc1-2 [Va-4, 10-((cyclopentylamino)methyl)-4-fluoro-6,11-dihydro-5H-indeno[1,2-c]isoquinolin-5-one] | 4 |
